According to patent US20190307691A1, “HYDROGELS WITH LIPOSOMES FOR CONTROLLED RELEASE OF DRUGS” (NORTHERN ILLINOIS RESEARCH FOUNDATION, priority 2018, published 2019):
Each block holds one compound with its values, some of them ahead of it.

Tests used:
[1] = Differential scanning calorimetry for thermal stability; settings: DSC, measure of thermal stability
Procedure: Differential scanning calorimetry (DSC) was used to investigate the thermal stability as well as interaction between liposomes and entrapped protein.
For thermal stability analysis of liposomes and encapsulated protein, two mg of standard lipids, protein and liposome samples were loaded in aluminum pans along with the standard reference aluminum in the differential scanning calorimeter (Shimadzu DSC 60). The thermal profiles were recorded between 10° C. and 180° C. at a scan rate of 15° C./min for three cycles.

[2] = cited from earlier work
[3] = oral, in the absence of decarboxylase inhibitors; cited from earlier work
[4] = L-DOPA oxidation in solution (UV-Vis, LC/MS); type: physicochemical
Procedure: The solution was stored with minimal exposure to light. […] In order to accelerate the complete oxidation of L-DOPA starting material, the substance was reacted in at pH 10. […] These hydrophobic oxidation products were separated and collected for in vitro experiments with epithelialcells.
LC/MS analysis was performed using an LCQ Advantage Mass Spectrometer System with a Surveyor LC Pump and PDA Detector (Thermo Finnigan). Separations were performed on a 100 mm×3.0 mm Kinetex C18 column. Mobile phase was 0.1% formic acid in MeOH (B) balanced with water. […] Absorbance was monitored at 280 and 320 nm. For ESI-MS conditions, capillary temperature was 200° C. and spray voltage was set to 4.5 kV. […] Full spectra were collected between m/z range of 200-1000.

[5] = Intravitreal drug release and toxicity in rabbit's eye (Fluorotron, ELISA, histopathology); type: in vivo, Oryctolagus cuniculus (Dutch belted rabbits); settings: single intravitreal injection
Procedure: The efficacy of the liposomes and the combination product has been tested using rabbit models. The experimental design of this experiment involving Oryctolagus cuniculus (Dutch belted rabbits) was approved by the Northern Illinois University Institutional Animal Care and Use Committee (IACUC) and is as follows. Rabbits were divided into 4 groups and each rabbit was injected with the formulation in the right eye using left eye as control.
Drug release profiles in the rabbit's eye over a period of time was measured non-invasively using the Fluorotron. […] Light re-emitted (reflection and fluorescence) by the fluorescent tag on the protein is sampled from the 1.9×0.1 mm slit, aligned to the excitation and defined by an aperture Rd (which is confocal to Re). […] The configuration of these pupils is in the plane of the subject's pupil minimizes contributions from the fluorescence outside of the measurement point by separating the excitation and detection paths. Another band-pass filter rejects reflected excitation light, and the fluorescence collected by aperture Rd is detected using a red-extended end-on photomultiplier tube selected for low (<100 count/sec.) dark noise. As the focus lens is driven forward the emission signal is continuously monitored from retina to cornea, giving an intensity output. […]

ARPE-19 cells = experiment: MTT cell viability with Avastin and Avastin liposomes; type: cell-based; settings: exposed to 2 mg of the antibody
Procedure: ARPE-19 cells purchased from American Type Culture Collection were used. […] Cells were plated in 12-well plates with an initial seeding density of 5×10^4 cells per ml in each plate. Cells were grown to confluency for 4 days prior to experimentation; 12-well plates were used for MTT assays. 1.5 ml of 25 mg/ml Avastin solution was sterile filtered to create a stock solution that was transferred to a sterile centrifuge tube. Each well of the 12 well plate had its media aspirated out and was then rinsed with buffer which was also aspirated out. […] Enough media was added to each well to create a total volume of 1 ml in each well. […] 1.3 ml of 10% MTT 5 mg/ml in PBS and 11.7 ml of 90% media (with phenol red) was used. MTT in PBS was added to the media in a centrifuge tube and then sterile filtered. The filtered mixture was then plated on the 12 well plate (1 ml per well). The plate was then incubated for 90 minutes. After incubation, the MTT media was aspirated. 1 ml of DMSO per well was added. The MTT assay was read at 560 nm.

[6] = cited from earlier work; remark: listed apart in the source
RPE cells = settings: 2.5 mg/ml; cited from earlier work

Melting temperature, Tm [1]: ~154° ° C.
Compound: CC(C)CCC[C@@H](C)[C@H]1CC[C@H]2[C@@H]3CC=C4C[C@@H](O)CC[C@]4(C)[C@H]3CC[C@]12C [Cholesterol]

Compound: CCCCCCCCCCCCCC(=O)OC[C@H](COP(=O)([O-])OCC[N+](C)(C)C)OC(=O)CCCCCCCCCCCCC [DMPC]
Melting temperature, Tm [1]: ~42° ° C.

Compound: CCCCCCCC/C=C\CCCCCCCC(=O)OC[C@H](COP(=O)(O)OCCN)OC(=O)CCCCCCC/C=C\CCCCCCCC [DOPE]
Melting temperature, Tm [1]: ~63° ° C.

Compound: CCCCCCCCCCCCCCCCCC(=O)OCC(COP(=O)(O)OCC(O)CO)OC(=O)CCCCCCCCCCCCCCCCC (stereo not drawn) [DSPG]
Melting temperature, Tm [1]: ~40° ° C.

oxidation of L-DOPA ([4]; PBS pH 7.4, after 3 days, minimal exposure to light): does not undergo complete oxidation
oxidation of L-DOPA ([4]; pH 7.4 solution, after 35 days): substantial oxidation
oxidation of L-DOPA ([4]; pH 10, after 24 hours): completely consumed
Compound: N[C@@H](Cc1ccc(O)c(O)c1)C(=O)O [L-DOPA]
drug oxidized to melanin ([2]; after 24 hr in neutral pH): 47%
drug oxidized ([2]; under basic conditions): at least 50.9%
unmetabolized drug reaching the brain [3]: less than 1%

Compound: Bevacizumab: anti-VEGF antibody, anti-angiogenic agent
Time of release of a therapeutic concentrate [5]: 5 weeks
cell viability (MTT) (ARPE-19 cells): decreased slightly
intravitreal half-life ([6]; intravitreal): about 4.32 days
concentration in the vitreous ([6]; maintained over a period of 30 days): about 10 μg/ml
effect on RPE cells (RPE cells): cytotoxic effects
